The record followed here is patent US7157430B2, “(Substituted)acyl dipeptidyl inhibitors of the ICE/CED-3 family of cysteine proteases” (Idun Pharmaceuticals, Inc., priority 1998, dated 2007).

What all share (assay type): biochemical
Settings in all cases: continuous assay 60 min, reaction initiated by adding enzyme

One test addresses T1, mICE (Mus musculus, UniProt P29452).
T1 sequence (P29452 123-296 limits assumed): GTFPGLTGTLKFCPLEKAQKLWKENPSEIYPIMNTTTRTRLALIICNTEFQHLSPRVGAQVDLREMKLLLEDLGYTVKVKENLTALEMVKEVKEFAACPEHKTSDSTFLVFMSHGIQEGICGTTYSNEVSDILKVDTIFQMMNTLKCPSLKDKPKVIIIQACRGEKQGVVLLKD
T1 sequence (P29452 315-402 limits assumed): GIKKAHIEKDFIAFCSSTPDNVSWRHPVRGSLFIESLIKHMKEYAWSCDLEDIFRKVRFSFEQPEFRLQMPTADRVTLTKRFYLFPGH
As to the kind of experiment: Dissociation constant Ki and irreversible rate constant k3 for irreversible inhibitors, ICE. The text has this:
(§1) For the irreversible inhibition of a ICE/ced-3 Family Protease enzyme with a competitive irreversible inhibitor; using the model represented by the following formulas: […]
(§2) The product formation at time t may be expressed as:
(§3) [formula] where E, I, EI and E-I denote the active enzyme, inhibitor, non-covalent enzyme-inhibitor complex and covalent enzyme-inhibitor adduct, respectively. The Ki value is the overall dissociation constant of the reversible binding steps, and k3 is the irreversible rate constant. The [S] and Ks values are the substate concentration and dissociation constant of the substrate bound to the enzyme, respectively. [E]^T is the total enzyme concentration.
(§4) The above equations were used to determine the Ki and k3 values of a given inhibitor bound to a ICE/ced-3 family protease. Thus, a continuous assay was run for sixty minutes at various concentrations of the inhibitor and the substrate. The assay was formulated essentially the same as described above for generating the data in Table 1, except that the reaction was initiated by adding the enzyme to the substrate-inhibitor mixture. The Ki and k3 values were obtained by simulating the product AMC formation as a function of time according to Equation 1.
(§5) The reference compound for this assay was Cbz-ValAlaAsp-CH2F and the values are denoted in Table 2 as “Reference”. The Ki values in Table 2 are in micromolar (μM). The k3/Ki values are in moles^−1 seconds^−1 (M^−1s^−1).

Another test addresses T2, CPP32 (Homo sapiens, UniProt P42574).
T2 sequence (P42574 29-175 limits assumed): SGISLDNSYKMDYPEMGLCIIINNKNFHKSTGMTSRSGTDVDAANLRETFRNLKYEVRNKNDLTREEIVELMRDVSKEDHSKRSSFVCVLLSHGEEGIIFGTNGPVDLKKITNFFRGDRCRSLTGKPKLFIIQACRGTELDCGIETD
T2 sequence (P42574 176-277 limits assumed): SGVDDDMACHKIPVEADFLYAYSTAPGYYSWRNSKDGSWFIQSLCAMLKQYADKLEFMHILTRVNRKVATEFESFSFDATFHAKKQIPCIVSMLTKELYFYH
The test can be described thus: Dissociation constant Ki and irreversible rate constant k3 for irreversible inhibitors, CPP32.
Text: as §1, §2, §3, §4, §5

In the next test the target is T3, MCH-2 (Homo sapiens, UniProt P55212).
T3 sequence (P55212 24-179 limits assumed): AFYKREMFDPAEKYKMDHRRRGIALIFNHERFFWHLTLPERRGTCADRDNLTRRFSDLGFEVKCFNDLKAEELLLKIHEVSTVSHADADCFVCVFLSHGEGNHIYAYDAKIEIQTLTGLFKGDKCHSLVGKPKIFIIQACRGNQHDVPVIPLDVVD
T3 sequence (P55212 194-293 limits assumed): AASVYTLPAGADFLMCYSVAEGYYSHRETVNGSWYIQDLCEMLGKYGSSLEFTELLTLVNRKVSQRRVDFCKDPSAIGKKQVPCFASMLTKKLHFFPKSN
The test can be described thus: Dissociation constant Ki and irreversible rate constant k3 for irreversible inhibitors, Mch2.
Text: as §1, §2, §3, §4, §5

In another test the target is MCH-5 (Homo sapiens, UniProt Q14790). As to the kind of experiment: Dissociation constant Ki and irreversible rate constant k3 for irreversible inhibitors, Mch5.
MCH-5, sequence (Q14790 217-374 limits assumed, species assumed): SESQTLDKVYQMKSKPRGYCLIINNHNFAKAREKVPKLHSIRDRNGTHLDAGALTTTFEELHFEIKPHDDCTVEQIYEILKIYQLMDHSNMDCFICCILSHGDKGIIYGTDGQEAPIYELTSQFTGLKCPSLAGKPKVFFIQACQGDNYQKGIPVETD
MCH-5, sequence (Q14790 385-479 limits assumed, species assumed): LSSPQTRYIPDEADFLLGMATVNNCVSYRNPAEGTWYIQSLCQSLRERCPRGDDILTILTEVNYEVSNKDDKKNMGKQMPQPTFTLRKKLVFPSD
Text: as §1, §2, §3, §4, §5

The structures appear in SMILES notation.

Turning to `CC(C)[C@H](NC(=O)COc1ccc2ccccc2c1)C(=O)NC(CC(=O)O)C(=O)CF` (mixture of isomers) [Example 54], on mICE, the Ki stood at 1.09 µM and the “mICE k3/Ki” value is listed as 8,280 M^−1s^−1. Besides, on CPP32, the “CPP32 k3/Ki” value was 59,300 M^−1s^−1 and the Ki amounted to 0.209 µM. At MCH-2, the Ki was found to be 0.057 µM and the “MCH-2 k3/Ki” value is 64,400 M^−1s^−1. At MCH-5, the Ki amounted to 0.059 µM and the “MCH-5 k3/Ki” value is reported as 32,300 M^−1s^−1.
For `CC(C)[C@H](NC(=O)CCOc1cccc2ccccc12)C(=O)NC(CC(=O)O)C(=O)CF` (mixture of isomers) [Example 55], at mICE, the Ki worked out at 0.246 µM and the “mICE k3/Ki” value was 33,200 M^−1s^−1. Also, at CPP32, the “CPP32 k3/Ki” value is 41,300 M^−1s^−1 and the Ki stood at 0.186 µM. On MCH-2, the Ki worked out at 0.039 µM and the “MCH-2 k3/Ki” value is on record as 59,400 M^−1s^−1. Besides, at MCH-5, the Ki was 0.056 µM and the “MCH-5 k3/Ki” value is on record as 20,400 M^−1s^−1.
Consider `CC(C)C[C@H](NC(=O)COc1ccccc1-c1ccccc1)C(=O)NC(CC(=O)O)C(=O)CF` (mixture of isomers) [Example 57, (3RS)-3-[N-((2-Phenylphenoxy)Acetyl)Leucinyl]Amino-5-Fluoro-4-Oxopentanoic Acid], for which, at mICE, the Ki came to 0.12 µM and the “mICE k3/Ki” value is given as 37,400 M^−1s^−1. Moreover, at CPP32, the “CPP32 k3/Ki” value is 177,000 M^−1s^−1 and the Ki is 0.042 µM. In addition, at MCH-2, the Ki was 0.03 µM and the “MCH-2 k3/Ki” value is recorded as 91,000 M^−1s^−1. On MCH-5, the Ki came out at 0.066 µM and the “MCH-5 k3/Ki” value is 15,900 M^−1s^−1.
Regarding `O=C(O)CC(NC(=O)[C@@H]1Cc2ccccc2CN1C(=O)COc1cccc2ccccc12)C(=O)CF` (mixture of isomers) [Example 60], on mICE, the Ki was found to be 0.373 µM and the “mICE k3/Ki” value is 33,500 M^−1s^−1. For the same compound, at CPP32, the “CPP32 k3/Ki” value is listed as 8,440 M^−1s^−1 and the Ki was 0.758 µM. Besides, at MCH-5, the Ki came to 0.467 µM and the “MCH-5 k3/Ki” value is 5,780 M^−1s^−1.
As to `CC(C)[C@H](NC(=O)COc1cccc2ccccc12)C(=O)NC(CC(=O)O)C(=O)CF` (mixture of isomers) [Example 53, (3RS)-3-[N-((1-Naphthyloxy)Acetyl)Valinyl]Amino-5-Fluoro-4-Oxopentanoic Acid], at mICE, the Ki is 0.053 µM and the “mICE k3/Ki” value is listed as 129,000 M^−1s^−1. At CPP32, the “CPP32 k3/Ki” value is 207,000 M^−1s^−1 and the Ki turned out to be 0.079 µM. Further, at MCH-2, the Ki was 0.038 µM and the “MCH-2 k3/Ki” value is 36,800 M^−1s^−1. Besides, on MCH-5, the Ki is 0.04 µM and the “MCH-5 k3/Ki” value was 71,700 M^−1s^−1.
As to `CC(C)C(NC(=O)COc1ccccc1-c1ccccc1)C(=O)NC(CC(=O)O)C(=O)CF` (stereo not drawn) [Example 56], at mICE, the Ki came out at 0.324 µM and the “mICE k3/Ki” value is listed as 15,400 M^−1s^−1. Besides, on CPP32, the “CPP32 k3/Ki” value is 105,000 M^−1s^−1 and the Ki came to 0.138 µM. Also, at MCH-2, the Ki worked out at 0.053 µM and the “MCH-2 k3/Ki” value is given as 50,000 M^−1s^−1. Moreover, at MCH-5, the Ki turned out to be 0.085 µM and the “MCH-5 k3/Ki” value is given as 12,800 M^−1s^−1.
As for `O=C(O)CC(NC(=O)[C@@H]1CCCCN1C(=O)COc1cccc2ccccc12)C(=O)CF` (stereo partly drawn) [Example 59], at mICE, the Ki was 0.184 µM and the “mICE k3/Ki” value is on record as 46,300 M^−1s^−1. In addition, on CPP32, the “CPP32 k3/Ki” value is 14,400 M^−1s^−1 and the Ki worked out at 0.942 µM. On MCH-2, the Ki was determined as 0.071 µM and the “MCH-2 k3/Ki” value is listed as 10,100 M^−1s^−1. In addition, on MCH-5, the Ki amounted to 0.09 µM and the “MCH-5 k3/Ki” value is on record as 17,600 M^−1s^−1.
With `O=C(O)CC(NC(=O)[C@@H]1Cc2ccccc2N1C(=O)COc1cccc2ccccc12)C(=O)CF` (stereo partly drawn) [Example 61, (2′S,3RS)-3-[N-((1-Naphthyloxy)Acetyl)Indoline-2′-Carbonyl]Amino-5-Fluoro-4-Oxopentanoic Acid], on mICE, the Ki was 0.148 µM and the “mICE k3/Ki” value was 93,200 M^−1s^−1. In addition, on CPP32, the “CPP32 k3/Ki” value is 28,300 M^−1s^−1 and the Ki turned out to be 0.36 µM. On MCH-5, the Ki amounted to 0.217 µM and the “MCH-5 k3/Ki” value is listed as 10,100 M^−1s^−1.
